Some test systems named below: ACHN; SN12C; SF-268; LOX IMVI; NCI-H226; Malme-3M; T47D; RXF 393; RPMI-8226; U-251; NCI-H522; MCF7; PC-3; SW-620; IGROV-1; K562; SK-MEL-5; CCRF-CEM; HOP-62; A498.
Holding throughout (assay): NCI anticancer screen, dose series, 48 h

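Method: 48-hour compound exposure of cells in 96-well plates, five concentrations, linear interpolation of endpoints. GI50 is the concentration that inhibits growth by half.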 Calls of active or inactive are those of the source. Cut-off read from the data, not from the text of the source: active = GI50 up to about 1.1 µM and inactive = higher.

In the case of `Oc1ccc(O)c(CNc2ccccc2)c1`, the GI50 was 10.5 µM (inactive) in the assay on ACHN; 11.3 µM (inactive) with SN12C; 11.6 µM (inactive) in the assay on SF-268; 6.15 µM (inactive) in the assay with LOX IMVI; 26.7 µM (inactive) in the assay with NCI-H226; 14.2 µM (inactive) in the assay with Malme-3M. For the same compound, the GI50 is 8.41 µM (inactive) in the assay with T47D; 5.64 µM (inactive) with RXF 393; 1.02 µM (active) in the assay on RPMI-8226; 17.1 µM (inactive) with U-251; 1.94 µM (inactive) in the assay on NCI-H522; 15.1 µM (inactive) in the assay with MCF7. For the same compound, the GI50 was 10.1 µM (inactive) in the assay with PC-3; 13.6 µM (inactive) in the assay with SW-620; 8.53 µM (inactive) with IGROV-1; 1.65 µM (inactive) with K562; 16.8 µM (inactive) in the assay with SK-MEL-5; 2.37 µM (inactive) with CCRF-CEM.
As to `CC(=O)OCC1OC(N2C(=S)N[C@H]([C@@H](O)[C@H](O)[C@H](O)CO)[C@H]2O)C(OC(C)=O)C(OC(C)=O)C1OC(C)=O` (some centres undefined), the GI50 in the assay on ACHN, in the assay on SN12C, in the assay with SF-268, in the assay with RXF 393, in the assay on RPMI-8226 and in the assay on U-251 was > 100 µM (inactive) throughout. In addition, the GI50 in the assay with NCI-H522, with MCF7, with PC-3, in the assay with SW-620, in the assay on IGROV-1 and in the assay with HOP-62 was > 100 µM (inactive) each time. The GI50 in the assay on K562, with SK-MEL-5 and in the assay on CCRF-CEM was > 100 µM (inactive) throughout.
Regarding `O=[N+]([O-])c1ccc(Nc2cccc3c4cc[nH]c(-c5ccccc5)c-4nc23)c([N+](=O)[O-])c1`, the GI50 with SN12C, in the assay with SF-268, in the assay on A498, in the assay with LOX IMVI, in the assay with NCI-H226 and in the assay with Malme-3M was > 100 µM (inactive) throughout. Besides, the GI50 in the assay with RXF 393 was > 100 µM (inactive); in the assay on RPMI-8226 it was > 100 µM (inactive); with U-251, > 100 µM (inactive); in the assay with NCI-H522 it was > 100 µM (inactive); with MCF7, 54.2 µM (inactive); in the assay on SW-620, > 100 µM (inactive). Moreover, the GI50 with IGROV-1 was > 100 µM (inactive); in the assay with HOP-62, > 100 µM (inactive); in the assay on K562 it was 36.1 µM (inactive); in the assay with SK-MEL-5, > 100 µM (inactive); in the assay on CCRF-CEM, 41.4 µM (inactive).
Turning to `O=C(O)CCC(NC(=O)c1ccc(Nc2cnc3cc(C(F)(F)F)ccc3n2)cc1)C(=O)O` (centres undefined), the GI50 in the assay with SN12C, in the assay on SF-268, in the assay on A498, with LOX IMVI, in the assay on NCI-H226 and in the assay on Malme-3M was > 100 µM (inactive) throughout. The GI50 with RXF 393, in the assay with RPMI-8226, with U-251, in the assay with NCI-H522, in the assay on MCF7 and in the assay with SW-620 was > 100 µM (inactive) in each case. In addition, the GI50 in the assay with IGROV-1, in the assay on HOP-62, in the assay on K562, in the assay on SK-MEL-5 and with CCRF-CEM was > 100 µM (inactive) in each case.
In the case of `CCC1(C)N=c2c(ncn2N=C(C)C)=C(C(N)=O)N1` (centres undefined), the GI50 with ACHN, in the assay on SN12C, with SF-268, with A498, with LOX IMVI and in the assay with NCI-H226 was > 100 µM (inactive) throughout. In addition, the GI50 in the assay with Malme-3M, in the assay with T47D, in the assay on RXF 393, with RPMI-8226, in the assay on U-251 and in the assay on NCI-H522 was > 100 µM (inactive) each time. Also, the GI50 in the assay with PC-3, with SW-620, in the assay on IGROV-1, in the assay with HOP-62, with K562 and with SK-MEL-5 was > 100 µM (inactive) throughout. Further, the GI50 in the assay with CCRF-CEM is > 100 µM (inactive).
As for `CC(C)c1ccc2c(c1)C=C1OC(=O)[C@]3(C)CCC[C@@]2(C)C13` (some centres undefined), the GI50 in the assay on ACHN, in the assay with SN12C, with SF-268, in the assay with NCI-H226, in the assay with T47D and with RXF 393 was > 100 µM (inactive) in each case. Further, the GI50 with RPMI-8226 was > 100 µM (inactive); with U-251 it was > 100 µM (inactive); in the assay with NCI-H522 it was 73.5 µM (inactive); with MCF7, > 100 µM (inactive); in the assay on PC-3, > 100 µM (inactive); with SW-620, > 100 µM (inactive). For the same compound, the GI50 in the assay with IGROV-1, with HOP-62, in the assay with K562, in the assay with SK-MEL-5 and with CCRF-CEM was > 100 µM (inactive) in each case.
In the case of `CCOC(=O)c1csc(-c2nc(CCNC(=O)c3ccccc3)sc2Cl)n1`, the GI50 in the assay on ACHN was > 100 µM (inactive); in the assay with SN12C, > 100 µM (inactive); in the assay on SF-268, 60 µM (inactive); in the assay with A498 it was 15.4 µM (inactive); in the assay with NCI-H226 it was > 100 µM (inactive); in the assay on Malme-3M, > 100 µM (inactive). Besides, the GI50 in the assay on RXF 393 is > 100 µM (inactive); in the assay with RPMI-8226 it was 44 µM (inactive); in the assay with U-251, 73.8 µM (inactive); in the assay on MCF7, 67.6 µM (inactive); with PC-3, 32.1 µM (inactive); in the assay with SW-620, > 100 µM (inactive). In addition, the GI50 in the assay with IGROV-1 is > 100 µM (inactive); with HOP-62, 55.7 µM (inactive); with K562, 37.1 µM (inactive); in the assay on SK-MEL-5 it was 42.7 µM (inactive); in the assay on CCRF-CEM, 30.5 µM (inactive).
On to `CC(C)=CCc1c(O)ccc2c1OC1c3ccc(O)c(CC=C(C)C)c3OCC21` (centres undefined), for which the GI50 in the assay with SN12C is 14 µM (inactive); in the assay with SF-268, 11.2 µM (inactive); in the assay on A498 it was 11.9 µM (inactive); with LOX IMVI, 6.81 µM (inactive); in the assay with NCI-H226, 14 µM (inactive); in the assay with Malme-3M it was 17 µM (inactive). Moreover, the GI50 in the assay on RXF 393 is 8.09 µM (inactive); in the assay with RPMI-8226, 3.28 µM (inactive); in the assay on U-251, 7.67 µM (inactive); in the assay on NCI-H522, 11.3 µM (inactive); in the assay with MCF7 it was 8.89 µM (inactive); with SW-620, 6.79 µM (inactive). In addition, the GI50 in the assay with IGROV-1 is 10.3 µM (inactive); in the assay with HOP-62, 9.84 µM (inactive); in the assay with K562, 4.42 µM (inactive); in the assay with SK-MEL-5, 5.98 µM (inactive); in the assay with CCRF-CEM, 6.62 µM (inactive).
In the case of `CC1(CO)C(O)CCC2(C)C1CCC1CC3CC12CCC3(O)CO` (centres undefined), the GI50 in the assay with SN12C was 16.7 µM (inactive); in the assay on SF-268, 8.36 µM (inactive); in the assay with A498, 7.6 µM (inactive); with LOX IMVI it was 4.72 µM (inactive); in the assay on NCI-H226 it was 21.2 µM (inactive); in the assay with Malme-3M it was > 76.2 µM (inactive). Besides, the GI50 in the assay with RXF 393 is 20 µM (inactive); in the assay on RPMI-8226 it was 2.31 µM (inactive); in the assay on U-251, 4.53 µM (inactive); in the assay on NCI-H522 it was > 28.2 µM (inactive); with MCF7, 5.04 µM (inactive); with SW-620, 9.75 µM (inactive). Besides, the GI50 in the assay with IGROV-1 was > 100 µM (inactive); in the assay on HOP-62, 1.04 µM (active); with K562, 14 µM (inactive); with SK-MEL-5 it was 5.83 µM (inactive); in the assay with CCRF-CEM, 2.84 µM (inactive).
Regarding `CN(C)C(=O)O/N=C1/C(=C2/C(=O)Nc3ccccc32)Nc2ccccc21`, the GI50 was 19.2 µM (inactive) in the assay with ACHN; 22.8 µM (inactive) with SN12C; 6.68 µM (inactive) in the assay with SF-268; 1.5 µM (inactive) in the assay with A498; 86.3 µM (inactive) with LOX IMVI; 4.25 µM (inactive) in the assay with Malme-3M. Besides, the GI50 in the assay on T47D is 2.76 µM (inactive); in the assay with RXF 393, 1.57 µM (inactive); in the assay on RPMI-8226, > 100 µM (inactive); in the assay with U-251, 11.7 µM (inactive); in the assay on NCI-H522, 8.75 µM (inactive); in the assay on MCF7, 17 µM (inactive). Further, the GI50 is 53.7 µM (inactive) with SW-620; 0.711 µM (active) with IGROV-1; 14.1 µM (inactive) in the assay with HOP-62; 27.7 µM (inactive) in the assay on K562; 24.2 µM (inactive) in the assay on SK-MEL-5; > 100 µM (inactive) in the assay on CCRF-CEM.
As to `CC1(C)S[C@@H]2[C@H](NC(=O)CCC[C@@H](N)C(=O)O)C(=O)N2[C@H]1C(=O)O` [ADICILLIN], the GI50 was > 50 µM (inactive) in the assay on SN12C; > 50 µM (inactive) in the assay with SF-268; > 44.7 µM (inactive) in the assay with A498; > 50 µM (inactive) in the assay on LOX IMVI; > 50 µM (inactive) in the assay with NCI-H226; > 50 µM (inactive) in the assay on Malme-3M. Moreover, the GI50 is > 50 µM (inactive) with RXF 393; > 50 µM (inactive) with RPMI-8226; > 25.6 µM (inactive) with U-251; > 50 µM (inactive) in the assay on NCI-H522; > 50 µM (inactive) with MCF7; > 31.6 µM (inactive) in the assay on SW-620. Besides, the GI50 with IGROV-1 is > 50 µM (inactive); in the assay with HOP-62, > 50 µM (inactive); in the assay with K562, > 50 µM (inactive); with SK-MEL-5 it was > 15 µM (inactive); in the assay with CCRF-CEM it was > 50 µM (inactive).

Source of the values: ChEMBL document CHEMBL1201862, “PubChem BioAssay data set” (2004).
